From ChEMBL document CHEMBL1201862, “PubChem BioAssay data set” (2004)
Activity calls are given as the source filed them.

Assays:
[1] = target: G-protein coupled receptor 55 (Homo sapiens, UniProt Q9Y2T6); experiment: GPR55 agonists via beta-arrestin recruitment, primary screen, imaging, U2OS cells, beta-arrestin-GFP redistribution (AID 1961); assay type: functional
[2] = target: T1, Kappa-type opioid receptor (Homo sapiens, UniProt P41145); assay type: functional
[3] = target: T1, Kappa-type opioid receptor; assay type: functional; remark: listed apart in the source
[4] = target: T2, Delta-type opioid receptor (Homo sapiens, UniProt P41143); experiment: HTS Image-Based Screen for Antagonists of the DOR Receptor. [Related pubchem assays (depositor defined):AID1777, AID1785, AID1786, AID2133]; assay type: functional
T2 sequence (P41143 whole entry): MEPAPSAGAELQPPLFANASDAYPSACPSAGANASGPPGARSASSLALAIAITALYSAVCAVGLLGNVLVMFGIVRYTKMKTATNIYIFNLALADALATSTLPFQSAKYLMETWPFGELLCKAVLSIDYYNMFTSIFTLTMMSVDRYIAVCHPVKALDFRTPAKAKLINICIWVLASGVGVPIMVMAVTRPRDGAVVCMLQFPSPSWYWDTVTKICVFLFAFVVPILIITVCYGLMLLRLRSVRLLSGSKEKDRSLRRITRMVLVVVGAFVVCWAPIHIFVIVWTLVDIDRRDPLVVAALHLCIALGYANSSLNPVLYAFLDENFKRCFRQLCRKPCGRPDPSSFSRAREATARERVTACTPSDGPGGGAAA

Beta-galactosidase [5] = target: T3, Beta-galactosidase (Escherichia coli, UniProt Q8VNN2); experiment: beta-galactosidase enzyme inhibitors and activators, dose response, artefact control for CCR6 antagonist project, biochemical, E. coli enzyme, set 3 (AID 504712); assay type: functional
T3 sequence (Q8VNN2 whole entry): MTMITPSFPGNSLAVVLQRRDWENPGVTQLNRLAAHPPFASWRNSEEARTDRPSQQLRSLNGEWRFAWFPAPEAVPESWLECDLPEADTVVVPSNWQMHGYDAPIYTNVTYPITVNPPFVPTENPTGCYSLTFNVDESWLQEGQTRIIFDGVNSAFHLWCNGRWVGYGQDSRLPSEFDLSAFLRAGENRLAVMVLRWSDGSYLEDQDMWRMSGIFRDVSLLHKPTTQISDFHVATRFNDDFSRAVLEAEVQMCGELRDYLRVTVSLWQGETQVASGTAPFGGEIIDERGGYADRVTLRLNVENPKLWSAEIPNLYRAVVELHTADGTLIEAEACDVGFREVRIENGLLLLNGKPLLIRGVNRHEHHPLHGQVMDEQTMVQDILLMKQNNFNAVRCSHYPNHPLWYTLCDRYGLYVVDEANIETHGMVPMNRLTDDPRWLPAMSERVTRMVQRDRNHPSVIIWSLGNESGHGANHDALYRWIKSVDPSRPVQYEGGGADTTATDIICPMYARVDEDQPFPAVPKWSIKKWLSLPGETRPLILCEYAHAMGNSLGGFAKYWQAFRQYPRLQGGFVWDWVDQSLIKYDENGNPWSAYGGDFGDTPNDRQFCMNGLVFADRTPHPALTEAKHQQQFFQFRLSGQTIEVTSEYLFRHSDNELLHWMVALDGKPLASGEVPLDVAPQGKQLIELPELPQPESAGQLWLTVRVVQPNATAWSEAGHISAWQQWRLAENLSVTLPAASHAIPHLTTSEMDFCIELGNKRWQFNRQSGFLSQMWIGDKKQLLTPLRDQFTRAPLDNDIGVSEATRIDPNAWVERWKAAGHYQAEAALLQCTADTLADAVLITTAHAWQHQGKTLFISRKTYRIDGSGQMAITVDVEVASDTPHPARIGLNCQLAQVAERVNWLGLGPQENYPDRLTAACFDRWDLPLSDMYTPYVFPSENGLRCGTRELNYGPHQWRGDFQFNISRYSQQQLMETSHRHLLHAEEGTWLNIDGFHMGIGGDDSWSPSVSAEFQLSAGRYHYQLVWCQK

Beta-galactosidase [6] = target: T3, Beta-galactosidase; assay type: functional
[7] = target: T2, Delta-type opioid receptor; experiment: HTS Image-Based Screen for Agonists of the DOR Receptor. [Related pubchem assays (depositor defined):AID1777, AID1786, AID2133]; assay type: functional
Streptococcus = experiment: Group A Streptococcus viability loss, dose response, counter-screen for streptokinase expression inhibitor project, luminescence, BacTiterGlo (AID 1915); assay type: functional, organism-based;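 note: potency for reduction of bacterial viability or growth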
Mu-type opioid receptor = Mu-type opioid receptor (Homo sapiens, UniProt P35372); experiment: HTS Image-Based Screen for Agonists of the MOR Receptor. [Related pubchem assays (depositor defined):AID1777, AID1785, AID1786, AID2133]; assay type: functional;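 note: imaging of beta-arrestin GFP recruitment into spots after receptor activation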
Mu-type opioid receptor, sequence (P35372 whole entry): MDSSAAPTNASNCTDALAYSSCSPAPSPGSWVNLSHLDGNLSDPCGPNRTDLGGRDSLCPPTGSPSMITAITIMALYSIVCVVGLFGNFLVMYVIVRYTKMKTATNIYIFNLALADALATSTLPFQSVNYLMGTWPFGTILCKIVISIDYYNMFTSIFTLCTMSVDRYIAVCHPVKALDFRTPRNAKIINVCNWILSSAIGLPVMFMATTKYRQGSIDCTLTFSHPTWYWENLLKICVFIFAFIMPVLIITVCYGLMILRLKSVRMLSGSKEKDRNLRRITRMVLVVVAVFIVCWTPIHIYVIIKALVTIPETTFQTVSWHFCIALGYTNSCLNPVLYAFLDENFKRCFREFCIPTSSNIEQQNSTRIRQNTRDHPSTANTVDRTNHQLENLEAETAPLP

[8] = system: Streptococcus sp. 'group A'; experiment: growth inhibition of control SK(-) GAS strain, dose response, counter-screen for streptokinase expression inhibitor project, luminescence, kanamycin, BacTiterGlo, confirmation (AID 1900); assay type: functional, organism-based
[9] = Luminescence Cell-Based Dose Response HTS to Identify Activators of Luciferase Translation or Activity in H4 […] Cells. [Related pubchem assays: 1829 (Project Summary), 1814 (Primary HTS)]; assay type: functional
H4 = experiment: Luminescence Cell-Based Dose Response HTS to Identify Activators of 5'UTR Stem-Loop Driven Prion Protein mRNA Translation in H4 Neuroglioblastoma Cells. [Related pubchem assays: 1829 (Project Summary), 1814 (Primary HTS)]; assay type: functional; details: Homo sapiens
Troponin, cardiac muscle = Troponin, cardiac muscle (Homo sapiens, UniProt P19429+P45379+P63316); experiment: Fluorescence-based biochemical high throughput dose response assay for activators of the calcium sensitivity of cardiac Regulated Thin Filaments (RTF). [Related pubchem assays (depositor defined):AID493008, AID493018, AID504382, AID504383]; assay type: protein-complex assay
[10] = target: T4, Mannose-6-phosphate isomerase (Homo sapiens, UniProt P34949); experiment: human PMI inhibitors, high substrate, primary screen, biochemical, fluorescence intensity, high mannose 6-phosphate (AID 1220)
T4 sequence (P34949 whole entry): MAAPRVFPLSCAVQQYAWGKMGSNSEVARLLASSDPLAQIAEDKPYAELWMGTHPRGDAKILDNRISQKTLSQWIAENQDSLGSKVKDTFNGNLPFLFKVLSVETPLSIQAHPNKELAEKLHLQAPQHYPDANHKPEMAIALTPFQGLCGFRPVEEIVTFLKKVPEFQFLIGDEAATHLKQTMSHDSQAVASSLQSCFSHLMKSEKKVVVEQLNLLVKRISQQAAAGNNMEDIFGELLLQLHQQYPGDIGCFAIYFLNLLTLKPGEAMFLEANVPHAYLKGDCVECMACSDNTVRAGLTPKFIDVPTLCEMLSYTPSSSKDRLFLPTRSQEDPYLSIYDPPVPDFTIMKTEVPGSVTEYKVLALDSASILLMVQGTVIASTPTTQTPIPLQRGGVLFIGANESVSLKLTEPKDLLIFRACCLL

CAAX prenyl protease 2 = CAAX prenyl protease 2 (Saccharomyces cerevisiae S288c, UniProt Q03530); assay type: biochemical
CAAX prenyl protease 2, sequence (Q03530 whole entry): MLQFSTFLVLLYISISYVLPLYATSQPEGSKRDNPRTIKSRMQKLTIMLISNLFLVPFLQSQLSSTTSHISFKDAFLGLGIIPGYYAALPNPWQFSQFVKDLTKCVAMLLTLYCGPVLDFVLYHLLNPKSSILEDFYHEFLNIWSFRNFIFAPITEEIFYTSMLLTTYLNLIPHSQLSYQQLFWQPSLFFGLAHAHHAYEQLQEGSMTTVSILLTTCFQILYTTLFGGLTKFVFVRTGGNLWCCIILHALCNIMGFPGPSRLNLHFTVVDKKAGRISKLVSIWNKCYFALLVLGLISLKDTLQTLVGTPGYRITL

[11] = target: T5, Rac GTPase-activating protein 1 (Homo sapiens, UniProt Q9H0H5); experiment: MgcRacGAP GTPase-activating activity inhibitors, confirmation, biochemical, ADP Hunter fluorescence, primary and confirmatory (AID 624330); assay type: functional
T5 sequence (Q9H0H5 whole entry): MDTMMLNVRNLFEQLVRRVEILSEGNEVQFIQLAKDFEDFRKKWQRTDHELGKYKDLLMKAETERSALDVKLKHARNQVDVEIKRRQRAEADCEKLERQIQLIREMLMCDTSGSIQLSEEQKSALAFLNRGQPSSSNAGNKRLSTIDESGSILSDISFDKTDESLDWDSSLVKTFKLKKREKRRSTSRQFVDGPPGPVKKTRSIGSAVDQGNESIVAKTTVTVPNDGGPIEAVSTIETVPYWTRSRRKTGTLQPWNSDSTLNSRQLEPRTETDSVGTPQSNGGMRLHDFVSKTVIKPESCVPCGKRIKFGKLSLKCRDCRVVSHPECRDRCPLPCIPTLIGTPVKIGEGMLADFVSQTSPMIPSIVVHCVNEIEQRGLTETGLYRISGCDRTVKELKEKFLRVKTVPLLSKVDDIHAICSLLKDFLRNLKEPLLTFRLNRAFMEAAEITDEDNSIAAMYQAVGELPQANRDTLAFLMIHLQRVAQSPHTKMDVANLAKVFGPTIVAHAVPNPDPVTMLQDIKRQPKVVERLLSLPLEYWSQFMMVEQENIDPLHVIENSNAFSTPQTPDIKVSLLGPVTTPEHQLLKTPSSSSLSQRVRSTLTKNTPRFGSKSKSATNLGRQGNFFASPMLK

[12] = target: T4, Mannose-6-phosphate isomerase; experiment: inhibitors of human PMI, primary screen, biochemical, fluorescence intensity, coupled assay (AID 1209)
[13] = target: Lysine-specific demethylase 4C (Homo sapiens, UniProt Q9H3R0); experiment: GASC-1 (JMJD2C) histone demethylase inhibitors, dose response, biochemical, DELFIA europium, cherry-picked samples (AID 488835); assay type: functional
Lysine-specific demethylase 4C, sequence (Q9H3R0 whole entry): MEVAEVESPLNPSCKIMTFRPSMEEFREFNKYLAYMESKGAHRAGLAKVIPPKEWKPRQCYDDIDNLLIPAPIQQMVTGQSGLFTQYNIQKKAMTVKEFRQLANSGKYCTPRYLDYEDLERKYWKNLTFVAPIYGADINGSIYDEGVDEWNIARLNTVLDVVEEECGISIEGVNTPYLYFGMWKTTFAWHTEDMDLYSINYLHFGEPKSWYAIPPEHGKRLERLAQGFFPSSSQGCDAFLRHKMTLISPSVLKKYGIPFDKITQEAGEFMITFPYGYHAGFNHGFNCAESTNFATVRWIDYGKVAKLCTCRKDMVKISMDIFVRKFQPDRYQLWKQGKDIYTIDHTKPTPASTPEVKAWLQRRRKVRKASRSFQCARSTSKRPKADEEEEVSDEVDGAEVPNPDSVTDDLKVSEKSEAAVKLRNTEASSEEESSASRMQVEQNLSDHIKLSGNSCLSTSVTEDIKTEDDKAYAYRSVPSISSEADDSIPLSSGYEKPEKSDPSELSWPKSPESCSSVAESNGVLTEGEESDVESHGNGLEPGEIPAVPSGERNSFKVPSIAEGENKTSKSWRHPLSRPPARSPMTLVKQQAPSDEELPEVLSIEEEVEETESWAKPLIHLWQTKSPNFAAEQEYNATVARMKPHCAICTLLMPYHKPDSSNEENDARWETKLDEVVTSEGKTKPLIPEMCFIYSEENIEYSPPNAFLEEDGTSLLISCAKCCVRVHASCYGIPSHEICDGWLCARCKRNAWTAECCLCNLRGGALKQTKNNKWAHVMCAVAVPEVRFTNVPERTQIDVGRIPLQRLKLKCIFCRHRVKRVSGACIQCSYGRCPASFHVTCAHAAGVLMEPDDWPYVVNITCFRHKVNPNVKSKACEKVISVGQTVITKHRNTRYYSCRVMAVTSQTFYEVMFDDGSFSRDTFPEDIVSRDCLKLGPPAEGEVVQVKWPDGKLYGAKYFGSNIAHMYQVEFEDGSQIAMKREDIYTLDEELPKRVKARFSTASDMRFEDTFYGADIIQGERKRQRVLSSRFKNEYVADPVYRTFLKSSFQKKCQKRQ

[14] = target: Induced myeloid leukemia cell differentiation protein Mcl-1 (Homo sapiens, UniProt Q07820); assay type: functional
Induced myeloid leukemia cell differentiation protein Mcl-1, sequence (Q07820 whole entry): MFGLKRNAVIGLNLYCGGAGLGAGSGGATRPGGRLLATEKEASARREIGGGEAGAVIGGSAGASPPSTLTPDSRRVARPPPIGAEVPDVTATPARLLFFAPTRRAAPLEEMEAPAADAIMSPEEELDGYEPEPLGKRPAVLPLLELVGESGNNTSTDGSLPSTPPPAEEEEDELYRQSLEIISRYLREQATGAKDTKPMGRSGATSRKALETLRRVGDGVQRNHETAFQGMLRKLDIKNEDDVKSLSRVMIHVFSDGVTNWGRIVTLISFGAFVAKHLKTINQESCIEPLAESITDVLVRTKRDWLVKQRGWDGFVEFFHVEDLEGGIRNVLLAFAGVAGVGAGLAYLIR

[15] = target: DNA damage-inducible transcript 3 protein (Mus musculus, UniProt P35639); assay type: functional, Cricetulus griseus
DNA damage-inducible transcript 3 protein, sequence (P35639 whole entry): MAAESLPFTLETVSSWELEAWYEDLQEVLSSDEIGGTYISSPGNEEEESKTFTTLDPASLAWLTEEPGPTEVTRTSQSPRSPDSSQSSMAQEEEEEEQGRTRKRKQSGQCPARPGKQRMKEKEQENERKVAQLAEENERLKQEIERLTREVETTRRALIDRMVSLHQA

[16] = Counterscreen for activators of the function of SWI/SNF related, matrix associated, actin dependent regulator of chromatin, subfamily a, member 2 (SMARCA2, BRM): Luminescence-based cell-based high throughput dose response assay to identify non-selective compounds using the VP16 reporter assay.; assay type: functional
[17] = target: DNA dC->dU-editing enzyme APOBEC-3A (Homo sapiens, UniProt P31941); experiment: APOBEC3A DNA deaminase inhibitors, dose response, biochemical (AID 504722); assay type: functional
DNA dC->dU-editing enzyme APOBEC-3A, sequence (P31941 whole entry): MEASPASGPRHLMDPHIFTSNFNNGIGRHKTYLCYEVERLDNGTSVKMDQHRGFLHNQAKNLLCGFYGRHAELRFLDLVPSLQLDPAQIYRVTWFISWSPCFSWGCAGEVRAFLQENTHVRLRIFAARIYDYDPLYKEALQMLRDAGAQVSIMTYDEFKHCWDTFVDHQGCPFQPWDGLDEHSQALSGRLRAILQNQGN

[18] = target: SWI/SNF-related matrix-associated actin-dependent regulator of chromatin subfamily A member 2 (Homo sapiens, UniProt P51531); experiment: Luminescence-based cell-based high throughput dose response assay to identify activators of the function of SWI/SNF related, matrix associated, actin dependent regulator of chromatin, subfamily a, member 2 (SMARCA2, BRM).; assay type: functional
[19] = target: DNA dC->dU-editing enzyme APOBEC-3G (Homo sapiens, UniProt Q9HC16); experiment: Dose Response confirmation of small molecule APOBEC3G DNA Deaminase Inhibitors via a fluorescence-based single-stranded DNA deaminase assay. [Related pubchem assays (depositor defined):AID493012, AID493028]; assay type: functional
DNA dC->dU-editing enzyme APOBEC-3G, sequence (Q9HC16 whole entry): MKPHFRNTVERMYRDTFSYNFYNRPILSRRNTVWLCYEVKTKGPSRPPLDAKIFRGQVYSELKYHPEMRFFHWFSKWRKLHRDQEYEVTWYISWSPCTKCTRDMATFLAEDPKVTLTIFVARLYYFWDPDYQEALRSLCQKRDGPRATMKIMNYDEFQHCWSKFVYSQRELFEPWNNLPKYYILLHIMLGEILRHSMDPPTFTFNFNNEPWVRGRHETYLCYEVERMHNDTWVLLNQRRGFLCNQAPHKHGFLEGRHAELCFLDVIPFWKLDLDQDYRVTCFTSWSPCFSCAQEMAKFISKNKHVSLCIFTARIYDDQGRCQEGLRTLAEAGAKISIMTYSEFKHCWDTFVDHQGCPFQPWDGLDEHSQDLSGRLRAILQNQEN

[20] = target: T6, Short transient receptor potential channel 4 (Mus musculus, UniProt Q9QUQ5); experiment: mouse TRPC4 channel inhibitors, dose response, cell-based, HEK293 TRPC4/mu-opioid, Fluo-4 calcium (AID 434942); assay type: functional;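 note: potency of inhibitors blocking the TRPC4 calcium response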
T6 sequence (Q9QUQ5 whole entry): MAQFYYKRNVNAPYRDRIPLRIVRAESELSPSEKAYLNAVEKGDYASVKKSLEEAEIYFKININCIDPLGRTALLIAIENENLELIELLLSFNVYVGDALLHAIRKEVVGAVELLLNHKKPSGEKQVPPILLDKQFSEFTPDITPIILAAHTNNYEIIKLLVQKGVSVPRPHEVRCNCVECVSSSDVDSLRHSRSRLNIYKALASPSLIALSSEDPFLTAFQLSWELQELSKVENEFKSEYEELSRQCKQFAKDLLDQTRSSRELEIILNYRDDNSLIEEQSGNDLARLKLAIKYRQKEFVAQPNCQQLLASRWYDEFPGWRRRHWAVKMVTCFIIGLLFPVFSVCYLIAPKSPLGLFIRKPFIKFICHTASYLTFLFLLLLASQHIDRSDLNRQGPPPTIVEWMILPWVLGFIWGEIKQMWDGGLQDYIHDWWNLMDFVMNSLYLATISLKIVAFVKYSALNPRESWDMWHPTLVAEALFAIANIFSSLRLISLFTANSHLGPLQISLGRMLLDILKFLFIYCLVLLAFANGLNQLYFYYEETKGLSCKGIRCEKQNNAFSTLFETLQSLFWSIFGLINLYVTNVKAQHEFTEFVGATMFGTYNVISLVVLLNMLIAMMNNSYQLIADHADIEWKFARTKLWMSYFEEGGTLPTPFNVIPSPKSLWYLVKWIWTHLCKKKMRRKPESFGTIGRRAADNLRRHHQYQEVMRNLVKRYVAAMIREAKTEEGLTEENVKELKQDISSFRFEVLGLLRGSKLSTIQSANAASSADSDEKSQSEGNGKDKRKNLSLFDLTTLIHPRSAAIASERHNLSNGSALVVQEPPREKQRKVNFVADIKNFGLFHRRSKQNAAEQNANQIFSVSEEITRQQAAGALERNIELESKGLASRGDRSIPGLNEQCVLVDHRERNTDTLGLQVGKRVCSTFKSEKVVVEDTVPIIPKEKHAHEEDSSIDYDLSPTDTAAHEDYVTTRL

Streptokinase A = target: T7, Streptokinase A (Streptococcus pyogenes serotype M1, UniProt P10520); experiment: S. pyogenes streptokinase expression inhibitors, potency, dose response, plasminogen activation absorbance, OD405 (AID 1914); assay type: functional, Streptococcus pyogenes M1 GAS;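 note: secreted streptokinase activity via plasminogen activation per viability signal from cell pellet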
T7 sequence (P10520 whole entry): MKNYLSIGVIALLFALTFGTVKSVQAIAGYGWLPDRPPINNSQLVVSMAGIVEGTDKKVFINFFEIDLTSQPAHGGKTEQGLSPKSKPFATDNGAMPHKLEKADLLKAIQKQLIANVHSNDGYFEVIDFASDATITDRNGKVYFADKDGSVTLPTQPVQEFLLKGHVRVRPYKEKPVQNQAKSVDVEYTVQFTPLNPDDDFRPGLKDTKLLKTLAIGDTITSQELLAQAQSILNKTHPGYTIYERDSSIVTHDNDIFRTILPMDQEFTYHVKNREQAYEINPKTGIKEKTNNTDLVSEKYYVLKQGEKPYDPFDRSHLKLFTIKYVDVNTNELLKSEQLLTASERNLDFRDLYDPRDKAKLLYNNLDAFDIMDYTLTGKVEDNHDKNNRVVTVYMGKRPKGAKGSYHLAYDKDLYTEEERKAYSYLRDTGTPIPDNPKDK

[21] = Luminescence Cell-Based Dose Retest to Confirm Inhibitors of Cancer Stem Cells. [Related pubchem assays (depositor defined):AID2717, AID2721]; assay type: functional; details: Homo sapiens

G-protein coupled receptor 55, sequence (Q9Y2T6 whole entry): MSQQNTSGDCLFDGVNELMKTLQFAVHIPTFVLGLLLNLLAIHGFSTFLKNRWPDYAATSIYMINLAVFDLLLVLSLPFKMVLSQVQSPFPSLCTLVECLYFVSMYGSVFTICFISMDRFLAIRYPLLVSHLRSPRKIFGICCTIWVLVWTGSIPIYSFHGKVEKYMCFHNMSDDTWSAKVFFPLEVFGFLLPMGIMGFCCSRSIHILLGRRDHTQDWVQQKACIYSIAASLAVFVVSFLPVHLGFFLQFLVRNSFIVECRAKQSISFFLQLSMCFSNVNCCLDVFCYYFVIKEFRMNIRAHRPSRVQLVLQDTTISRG
T1 sequence (P41145 whole entry): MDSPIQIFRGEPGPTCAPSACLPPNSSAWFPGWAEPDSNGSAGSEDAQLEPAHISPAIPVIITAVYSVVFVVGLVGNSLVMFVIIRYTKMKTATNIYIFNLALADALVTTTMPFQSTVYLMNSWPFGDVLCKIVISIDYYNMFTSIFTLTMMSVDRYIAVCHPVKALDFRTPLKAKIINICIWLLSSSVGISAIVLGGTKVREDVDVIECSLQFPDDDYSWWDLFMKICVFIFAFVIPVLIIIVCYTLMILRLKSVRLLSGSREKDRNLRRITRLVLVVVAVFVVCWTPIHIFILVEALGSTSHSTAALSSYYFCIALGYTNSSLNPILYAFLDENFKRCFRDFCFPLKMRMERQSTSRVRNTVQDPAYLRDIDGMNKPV

Cc1c(C(=O)c2ccc(Cl)c(Cl)c2)cnc2cc3c(cc12)OCO3
EC50 [1]: > 32 µM (inactive)

O=C(NC(=S)N1CCN(c2ccc(Cl)cc2[N+](=O)[O-])CC1)c1cccs1
IC50 [2]: 12.3 µM (active) | IC50 [3]: > 32 µM | IC50 [4]: > 32 µM (inactive) | IC50 (Beta-galactosidase [5]): > 66.6 µM (inactive) | EC50 (Beta-galactosidase [6]): > 31.5 µM (inactive) | EC50 [7]: > 32 µM (inactive) | EC50 (Streptococcus): 4.3 µM (active) | EC50 (Mu-type opioid receptor): > 32 µM (inactive) | EC50 [8]: 2.08 µM (active)

CC(/C=N/Nc1ccc2nncn2n1)=C\c1ccccc1
EC50 [9]: 20.7 µM (active) | EC50 (H4): > 120 µM (not active) | EC50 (Troponin, cardiac muscle): > 71.5 µM (inactive)

OCCN(CCO)c1ccc2ccccc2c1
IC50 [10]: > 50 µM (not active) | AC50 (CAAX prenyl protease 2): 63.8 µM (active) | IC50 [11]: 56.3 µM (active) | IC50 [12]: 21.3 µM (active)

O=C(NCCCNCCCNC(=O)c1ccc(/C=N/O)nc1)c1ccc(/C=N/O)nc1
AC50 [13]: 18 µM (active)

CC(=O)C1=C(S(=O)(=O)c2ccc(C)cc2)CS(=O)(=O)C1
IC50 [11]: 34.3 µM (active) | IC50 [14]: 10.9 µM (active) | Absolute IC50 (CHOP) [15]: 10 µM | IC50 [12]: 28.1 µM (active) | EC50 [16]: > 91.2 µM (inactive) | IC50 [17]: > 100 µM (inactive) | EC50 [18]: > 91.2 µM (inactive) | IC50 [19]: 8.26 µM (active) | EC50 [20]: 4.73 µM (active)

CC(C)Cn1c(O)c(N=NC(=O)c2cccc(S(=O)(=O)N3CCCCC3)c2)c2ccccc21
EC50 (Streptokinase A): > 150 µM (not active) | AC50 [21]: 20.5 µM (active) | EC50 (Streptococcus): 34.3 µM (active) | EC50 [1]: 4.75 µM (active) | EC50 [8]: 5.53 µM (active)
